According to publication PMC11079064, “Discovery of a brain penetrant small molecule antagonist targeting LPA1 receptors to reduce neuroinflammation and promote remyelination in multiple sclerosis” (Scientific Reports, 2024):
Where two headings read alike, the source gives them in different places.

Legend:
human LPA1 = target: T1, human LPA1 (Homo sapiens, UniProt Q92633); experiment: Competitive membrane filter radioligand binding assay; conditions: membranes from cells overexpressing human LPA1, LPA1 selective radioligand
T1 construct: expressed in transfected cells
T1 sequence (Q92633 whole entry): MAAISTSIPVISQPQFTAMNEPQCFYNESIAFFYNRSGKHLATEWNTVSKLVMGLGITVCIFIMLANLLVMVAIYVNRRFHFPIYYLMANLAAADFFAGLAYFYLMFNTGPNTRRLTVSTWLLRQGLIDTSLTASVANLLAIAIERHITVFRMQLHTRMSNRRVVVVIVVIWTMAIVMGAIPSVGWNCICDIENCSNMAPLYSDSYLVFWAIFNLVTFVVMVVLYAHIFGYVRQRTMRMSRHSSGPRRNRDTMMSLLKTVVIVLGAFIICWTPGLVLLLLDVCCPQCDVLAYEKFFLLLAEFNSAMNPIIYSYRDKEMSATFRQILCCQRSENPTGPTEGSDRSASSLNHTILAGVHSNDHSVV
Procedure: Binding assay: Membranes were prepared from B103 cells stably expressing human LPA1 receptor. Cells were resuspended in a hypotonic buffer containing 0.25 M sucrose/0.2 mM EDTA. After 30 min on ice, cells were centrifuged at 41,415 × g. Membrane pellet was resuspended in 20 mM HEPES, pH 7.4 storage buffer and centrifuged at 41,415 × g. Membranes were resuspended in storage buffer + 1 mM dithiothreitol. Protein was quantified using the DC Protein Assay (Bio-Rad, Hercules, CA), aliquoted, and stored at – 80 °C until assay. A tritiated LPA1 selective antagonist[10] was used as radiolabeled ligand. […] The plates were shaken at 300 rpm for 2 h at room temperature. GF/B plates assay filter plates (Perkin Elmer, Boston, MA, Waltham, MA) were prepared by adding 50 µl of 0.5% polyethylenimine (Millipore Sigma, St. Louis, MO) and incubated at room temperature for > 30 min. The assay was terminated by vacuum filtration (Brandel Harvester). Plates were washed 3 × with 2 ml ice cold buffer containing 50 mM HEPES + 100 mM NaCl + 2 mM EDTA, pH 7.4. Once dry, 50 µl of Betaplate Scintillation Cocktail (Perkin Elmer, Boston, MA) was added to each well. After a 20 min incubation, plates were read on the Perkin Elmer TopCount.

[1] = test system: human cortical slice cultures; experiment: Human cortical slice culture, Mbp transcript by qPCR; assay type: cell-based; conditions: 9 days treatment; read-out: EC50 of Mbp increase by qPCR
Procedure: Cortical slices from regions containing both white and gray matter were generated from fresh human adult donor tissue and cultured for 10 days.
(§1) Human donor brain was received 14 h after death on wet ice. Upon receipt, the brain was immediately placed into-ice cold DPBS without calcium or magnesium. Cortical regions containing gray-white border were isolated then sliced on a McIlwain tissue chopper set at 400 µm thickness. […] Slices were then processed for qPCR or immunohistochemistry.
Evaluation of Mbp transcript in human brain slice culture: After compound treatment, slices were immediately transferred to lysis buffer and RNA extracted using the RNEasy Mini kit (Qiagen). Reverse transcription was performed using QScript (QuantaBio) followed by qPCR with Perfecta PCR SuperMix (QuantaBio) on a StepOne Plus Thermocycler (ABI). Primers used were as follows: 18S rRNA F: […] R: […]; Mbp: […] R: […]. Cycling parameters: 95 °C 30 s, then repeat 45×: 95 °C for 5 s, 60 °C for 15 s, followed by melt curve analysis. Data was calculated using 2^−ΔΔCt , normalizing to 18S RNA and vehicle.

[2] = test system: human cortical slice cultures; experiment: Human cortical slice culture, CC1+ cells by immunohistochemistry; assay type: cell-based
Procedure: as §1
Immunohistological evaluation of oligodendrocytes in human brain slice culture: After compound treatment, slices were fixed in 4% PFA overnight. Slices were gently lifted from the membrane insert and washed with at least five 15 min washes in DPBS containing 0.5% Triton-X 100 (0.5%-DPBS) followed by overnight incubation in primary antibodies in blocking solution. Antibodies used were CC-1 (mouse, 1:250, Millipore, Temecula, CA), Olig2 (rabbit 1:250 CellMarque). Slices were washed with at least five 15 min washes in 0.5%-DPBS followed by incubation with secondary antibodies (anti-mouse Alexa488; anti-rabbit, Alexa568, and Hoechst counterstain) in 0.5%-DPBS. All secondary antibodies were produced in goat (Invitrogen, Carlsbad, CA, Carlsbad, CA) and used at 1:250. Filters were excised from insert, mounted with Fluoromount (Millipore Sigma, St. Louis) on a microscope slide and coverslipped. 2 images per slice were acquired using a Nikon A1R confocal microscope and NIS-Elements software. Images were thresholded and counted using ImageJ.

[3] = test system: human brain meningeal fibroblasts; experiment: LPA-induced activation of human meningeal fibroblasts (COL1+ area); assay type: cell-based; conditions: LPA stimulation, read-out: IC50 of inhibition of increase in COL1+ area
Procedure: Recent work from Dorrier et al., has implicated persistent fibrotic scarring in the CNS in the mouse EAE model and that the contributing cells were of meningeal origin. […] We cultured primary rat or human brain meningeal fibroblasts and applied 10 µM LPA to induce activation. Upon LPA stimulation, we saw a change in morphology that could be quantified as a change in collagen I (COL1^+) area.
Meningeal fibroblasts were obtained from IxCells (San Diego, CA) and plated at 5000 cells per well according to manufacturer's protocol. […] Cells were stained and imaged as described with rat meningeal fibroblasts.
Supplemental Figure 8. […] A. Rat primary meningeal fibroblasts were isolated and serum starved overnight. […] Cells were fixed and immunostained with a collagen 1a1 antibody (green) and counterstained with Hoechst (blue). […] Cells were fixed and immunostained with a collagen I antibody (green) and counterstained with Hoechst (blue). […] C. […] Collagen 1a1 (green), Hoechst (blue). Scale bar 50 µm. One-way ANOVA with Dunnett’s; * p<0.05, ** p<0.01, *** p<0.001, **** p<0.0001.

rat oligodendrocytes = experiment: Oligodendrocyte protection assay (TNFα/IFNγ insult); assay type: cell-based; conditions: TNFα and IFNγ insult
Text: TNFα and IFNγ are two cytokines that, while not normally expressed in the CNS, are elevated in MS[29]. These cytokines can be secreted by both macrophages and microglia[30],[31]. Receptors for these cytokines (TNFR1, TNFR2, and IFNGR) are expressed in oligodendrocytes. Of note, TNFR1 and 2 have been found on oligodendrocytes bordering MS lesions[23],[32], [33]. Further, although receptor expression for these cytokines on OPCs is unknown, addition of either of these cytokines impact differentiation in isolated OPC cultures[28],[34]. Cultured rat OPCs were differentiated with T3 for 24 h then treated with both TNFα and IFNγ Upon cytokine addition, we observed significant cell death consistent with previous observations (Fig. 6C, left[22],[35]–[37]).
OPC Assay: OPCs were plated in poly-L-lysine (Millipore Sigma, St. Louis, MO) coated 96-well Viewplates™ (Perkin Elmer, Boston, MA) at a seeding density of […] per well. Cells were maintained in media composed of DMEM (Invitrogen, Carlsbad, CA) supplemented with B27 (Invitrogen, Carlsbad, CA), N2 (Invitrogen, Carlsbad, CA), penicillin–streptomycin (Invitrogen, Carlsbad, CA), N-acetylcysteine (Millipore Sigma, St. Louis, MO), forskolin (Millipore Sigma, St. Louis, MO), and 25 ng/ml PDGF-AA (Peprotech, Cranbury, New Jersey) for 24 h at 37°, 5% CO2. Compounds were diluted 10× at a concentration range of 0.001–3 µM. […]

IC50 (human LPA1): 2.63 nM
EC50 [1]: 4.2 nM
EC50 (rat oligodendrocytes; read-out: EC50 of protection of MBP+ oligodendrocytes): 125 nM
SMILES: COc1ccc(NC(=O)N(c2ccccc2C(C)C)C2CCC(C(=O)O)CC2)c(OC(F)F)n1 (stereo not shown) [PIPE-791]
CC1+ cells ([2]; 100 nM): significant increase
differentiation by number of CC1+ cells ([2]; 300 nM): significant differentiation
IC50 [3]: 4.5 nM
EC50 (rat oligodendrocytes; data not shown, read-out: EC50 of total cellular viability with Alamar blue): 39.6 nM
